Reference: patent US9481639B2, “Substituted tetracycline compounds for treatment of inflammatory skin disorders” (Paratek Pharmaceuticals, Inc., priority 2006, dated 2016)
In brackets after ≈: the same amount, converted by molar mass. Where two headings read alike, the source gives them in different places.

Assays:
[1] = test system: carrageenan induced rat paw inflammation; test: Rat carrageenan-induced paw edema inflammatory model; type: in vivo; conditions: for 50% effective concentration (EC50), carrageenan induced paw inflammation: IP 30 minutes before carrageenan, paw volume 3 hours after
Protocol: The model used a sub-plantar injection of carrageenan in the rat to induce an inflammatory response. The test compound or saline (control) was administered IP 30 minutes before a subplantar injection of carrageenan (1.5 mg/0.1 mL). Paw volume was measured […] before subplantar injection and again 3 hours after the injection of carrageenan using a plethysmometer. Significant differences as determined by a Kruskal-Wallis One Way ANOVA are noted between the inflammation of the untreated controls versus treated animals […]

[2] = test system: B. thetaiotaomicron ATCC 29741; test: Antibacterial MIC, CLSI broth microdilution; type: cell-based
Protocol: (§1) Gram (−) and gram (+) antibacterial minimum inhibitory concentration (MIC) values (μg/mL) were obtained using CLSI methodology for anti-bacterial susceptibility testing. On each day of testing, serial dilutions of compounds were prepared in microdilution plates using a Tecan robotic workstation. Mueller Hinton broth cultures of representative sensitive and resistant gram negative strains were grown or adjusted to match the turbidity of a 0.5 McFarland standard. 1:200 dilutions were made in an appropriate broth (cation supplemented Mueller Hinton broth) to allow a final inoculum of 1×10^5 cfu. Plates were incubated at 35° C. in ambient air for 18-24 hours, were read spectrophotometrically and checked manually for evidence of bacterial growth. The lowest dilution of compound that inhibited growth was recorded as the MIC. Lysed horse blood was used to supplement broth for testing S. pneumoniae. The MIC's for each compound were assessed against S. aureus, S. pneumoniae, P. acnes, E. coli and B. theta.

in vitro = type: cell-based
Protocol: Mammalian cell cytotoxicity was assessed to evaluate potential in vivo risks associated with the tetracycline compounds of the invention. A soluble, non-toxic redox dye (“Resazurin”; Alamar Blue) was used to assess a tetracycline compound's effect on cellular metabolism. At the onset of the experiment, cultures of mammalian COS-1 or CHO cells were washed, trypsinized, and harvested. […] On the next day, serial dilutions of test drug were prepared under sterile conditions and transferred to cell plates. Plates were then incubated under the above conditions for 24 hours. Following the incubation period, the media/drug was aspirated, and 50 μL of resazurin was added. Plates were then incubated under the above conditions for 2 hours and then in the dark at room temperature for an additional 30 minutes. Fluorescence measurements were taken (excitation 535 nm, emission 590 nm) and toxic effects in treated versus control cells were compared based on the degree of fluorescence in each well.

E. coli ATCC 25922 = test: Antibacterial MIC, CLSI broth microdilution; type: cell-based; conditions: Escherichia coli, ATCC25922; 35° C., 18-24 hours
Protocol: as §1

P. acnes ATCC 11827 = test: Antibacterial MIC, CLSI broth microdilution; type: cell-based; conditions: Cutibacterium acnes, ATCC11827
Protocol: as §1

[3] = test system: S. pneumoniae 157E - Strep; test: Antibacterial MIC, CLSI broth microdilution; type: cell-based; conditions: Streptococcus pneumoniae, 157ESTREP; broth supplemented with lysed horse blood
Protocol: as §1

S. aureus RN450 [4] = test: Antibacterial MIC, CLSI broth microdilution; type: cell-based; conditions: Staphylococcus aureus, 35° C., 18-24 hours
Protocol: as §1

E. coli MG. 1655 = test: Antibacterial MIC, CLSI broth microdilution; type: cell-based; conditions: Escherichia coli, 35° C., 18-24 hours
Protocol: as §1

P. acnes ATCC 6919 = test: Antibacterial MIC, CLSI broth microdilution; type: cell-based; conditions: Cutibacterium acnes, ATCC6919
Protocol: as §1

S. aureus RN450 [5] = test: In vivo anti-bacterial activity, S. aureus lethal infection model; conditions: Staphylococcus aureus, sc, mice; for ED50: lethal IP S. aureus RN450, subcutaneous, 24 hours, read-out: PD50 (dose that protects 50% of the animals); for responders at 5 mg/kg: lethal IP S. aureus RN450, single subcutaneous dose 5 mg/kg, survival at 24 hours, read-out: Percent Survival
Protocol: Groups of five mice were injected intraperitoneally with a lethal dose of S. aureus RN450 in a medium of mucin. Mice were evaluated at 24 hours to determine survival. […] In some instances, a dose response study was performed with the compound such that a PD50 (a dose of compound that protects 50% of the animals) could be calculated.

[6] = Bacteroides thetaiotaomicron, ATCC29741, read-out: MIC B. thetaiotaomicron ATCC 29741
[7] = Bacteroides thetaiotaomicron, ATCC29741; read-out: MIC B. thetaiotaomicron ATCC 29741

SMILES	50% effective concentration (EC50), carrageenan induced paw inflammation [1]	MIC [2, 6] [µg/mL]	IC50 at 24 h (in vitro; African green monkey) [µg/mL]	IC50 at 24 h (in vitro; Chinese hamster) [µg/mL]	MIC (E. coli ATCC 25922) [µg/mL]	MIC (P. acnes ATCC 11827) [µg/mL]	MIC [3] [µg/mL]	MIC [2, 7] [µg/mL]	MIC (S. aureus RN450 [4]) [µg/mL]	MIC (E. coli MG. 1655) [µg/mL]	MIC (P. acnes ATCC 6919) [µg/mL]	ED50 (S. aureus RN450 [5]) [mg/kg]	responders at 5 mg/kg (S. aureus RN450 [5]) [%]	modulation of carrageenan induced inflammation compared with reference tetracycline ([1]; IP, various doses, A vs doxycycline (FIG. 1), P vs minocycline (FIG. 2))
CN(C)c1ccc(O)c2c1C[C@H]1C[C@H]3[C@H](N(C)C)C(O)=C(C(N)=O)C(=O)[C@@]3(O)C(O)=C1C2=O [Minocycline, reference compound]	approximately 50 mg/kg	4 to 8 (≈ 8.74 to 17.5 µM)												
CN(C)[C@@H]1C(O)=C(C(N)=O)C(=O)[C@@]2(O)C(O)=C3C(=O)c4cccc(-c5cnccn5)c4C[C@H]3C[C@@H]12 [Compound W, (4S,4aS,5aR,12aS)-4-Dimethylamino-3,12,12a-trihydroxy-1,11-dioxo-7-pyrazin-2-yl-1,4,4a,5,5a,6,11,12a-octahydro-naphthacene-2-carboxylic acid amide]			> 75	> 75	> 8	< 4	< 4	> 8	< 4	> 8	< 4	1.08		
CC(=NOC(C)(C)C)c1cc(N)c(O)c2c1C[C@H]1C[C@H]3[C@H](N(C)C)C(O)=C(C(N)=O)C(=O)[C@@]3(O)C(O)=C1C2=O [Compound Q, (4S,4aS,5aR,12aS)-9-Amino-7-(1-tert-butoxyimino-ethyl)-4-dimethylamino-3,10,12,12a-tetrahydroxy-1,11-dioxo-1,4,4a,5,5a,6,11,12a-octahydro-naphthacene-2-carboxylic acid amide]			< 35	< 35	4 to 8 (≈ 7.37 to 14.7 µM)	< 4	< 4	4 to 8 (≈ 7.37 to 14.7 µM)	< 4	4 to 8 (≈ 7.37 to 14.7 µM)	< 4	0.45	100	
CCO/N=C(/C)c1ccc(O)c2c1CC1CC3[C@H](N(C)C)C(O)=C(C(N)=O)C(=O)[C@@]3(O)C(O)=C1C2=O (stereo partly drawn) [Compound A]			< 35	< 35	< 4	< 4	< 4	> 8	< 4	4 to 8 (≈ 8.01 to 16 µM)	< 4		100	improved activity
C[C@H]1c2cccc(O)c2C(=O)C2=C(O)[C@]3(O)C(=O)C(C(N)=O)=C(O)[C@@H](N(C)C)[C@@H]3[C@@H](O)[C@@H]21 [Doxycycline, reference compound]	approximately 50 mg/kg	4 to 8 (≈ 9 to 18 µM)												
